Experimental data as given in ChEMBL document CHEMBL1132149, “Potent bivalent thrombin inhibitors: replacement of the scissile peptide bond at P(1)-P(1)' with arginyl ketomethylene isosteres” (J Med Chem, 1999).

Each molecule was assayed against Prothrombin (Homo sapiens, UniProt P00734) (assay: Inhibitory constant against thrombin).

SMILES | Ki [pM]
CC[C@@H](C)[C@H](NC(=O)[C@H](CCC(=O)O)NC(=O)[C@H](CCC(=O)O)NC(=O)[C@H](Cc1ccccc1)NC(=O)[C@H](CC(=O)O)NC(=O)CNC(=O)CNC(=O)CNC(=O)CNC(=O)CSCC(=O)[C@H](CCCN=C(N)N)NC(=O)[C@@H]1CCCN1C(=O)[C@H](N)Cc1ccccc1)C(=O)N1CCC[C@H]1C(=O)N[C@@H](CCC(=O)O)C(=O)N[C@@H](CCC(=O)O)C(=O)N[C@@H](Cc1ccc(O)cc1)C(=O)N[C@@H](CC(C)C)C(=O)N[C@@H](CCC(N)=O)C(=O)O | 9.4
CC[C@@H](C)[C@H](NC(=O)[C@@H]1CCCN1C(=O)[C@H](CCC(=O)O)NC(=O)[C@H](Cc1ccc(O)cc1)NC(=O)[C@H](CC(=O)O)NC(=O)CNC(=O)CNC(=O)CNC(=O)CNC(=O)CN(C)CC(=O)[C@H](CCCNC(=N)N)NC(=O)[C@@H]1CCCN1C(=O)[C@H](N)Cc1ccccc1)C(=O)N1CCC[C@H]1C(=O)N[C@@H](CCC(=O)O)C(=O)N[C@@H](CCC(=O)O)C(=O)N[C@@H](Cc1ccc(O)cc1)C(=O)N[C@@H](CC1CCCCC1)C(=O)N[C@@H](CC(=O)O)C(=O)O | 35
CC[C@@H](C)[C@H](NC(=O)[C@@H]1CCCN1C(=O)[C@H](CCC(=O)O)NC(=O)[C@H](Cc1ccc(O)cc1)NC(=O)[C@H](CC(=O)O)NC(=O)CNC(=O)CNC(=O)CNC(=O)CNC(=O)CSCC(=O)[C@H](CCCN=C(N)N)NC(=O)[C@@H]1CCCN1C(=O)[C@H](N)CC1CCCCC1)C(=O)N1CCC[C@H]1C(=O)N[C@@H](CCC(=O)O)C(=O)N[C@@H](CCC(=O)O)C(=O)N[C@@H](C)C(=O)N[C@@H](CC1CCCCC1)C(=O)N[C@H](CCC(N)=O)C(=O)O | 0.35
CC[C@@H](C)[C@H](NC(=O)[C@@H]1CCCN1C(=O)[C@H](CCC(=O)O)NC(=O)[C@H](Cc1ccc(O)cc1)NC(=O)[C@H](CC(=O)O)NC(=O)CNC(=O)[C@H](CC(N)=O)NC(=O)CNC(=O)CNC(=O)CNC(=O)CNC(=O)CN(C)CC(=O)[C@H](CCCNC(=N)N)NC(=O)[C@@H]1CCCN1C(=O)[C@H](N)CC1CCCCC1)C(=O)N1CCC[C@H]1C(=O)N[C@@H](CCC(=O)O)C(=O)N[C@@H](CCC(=O)O)C(=O)N[C@@H](C)C(=O)N[C@@H](CC1CCCCC1)C(=O)N[C@H](CCC(=O)O)C(=O)O | 0.87
CC[C@@H](C)[C@H](NC(=O)[C@@H]1CCCN1C(=O)[C@H](CCC(=O)O)NC(=O)[C@H](Cc1ccc(O)cc1)NC(=O)[C@H](CC(=O)O)NC(=O)CNC(=O)CNC(=O)CNC(=O)CNC(=O)CN(C)CC(=O)[C@H](CCCNC(=N)N)NC(=O)[C@@H]1CCCN1C(=O)[C@H](N)CC1CCCCC1)C(=O)N1CCC[C@H]1C(=O)N[C@@H](CCC(=O)O)C(=O)N[C@@H](CCC(=O)O)C(=O)N[C@@H](Cc1ccc(O)cc1)C(=O)N[C@@H](CC1CCCCC1)C(=O)N[C@@H](CC(=O)O)C(=O)O | 2
CC[C@@H](C)[C@H](NC(=O)[C@H](CCC(=O)O)NC(=O)[C@H](CCC(=O)O)NC(=O)[C@H](Cc1ccccc1)NC(=O)[C@H](CC(=O)O)NC(=O)CNC(=O)CNC(=O)CNC(=O)CNC(=O)CSCC(=O)[C@H](CCCNC(=N)N)NC(=O)[C@@H]1CCCN1C(=O)[C@@H](Cc1ccccc1)NC(C)=O)C(=O)N1CCC[C@H]1C(=O)N[C@@H](CCC(=O)O)C(=O)N[C@@H](CCC(=O)O)C(=O)N[C@@H](Cc1ccc(O)cc1)C(=O)N[C@@H](CC(C)C)C(=O)N[C@@H](CCC(N)=O)C(=O)O | 1060
CC[C@@H](C)[C@H](NC(=O)[C@H](CCC(=O)O)NC(=O)[C@H](CCC(=O)O)NC(=O)[C@H](Cc1ccccc1)NC(=O)[C@H](CC(=O)O)NC(=O)CNC(=O)CNC(=O)CNC(=O)CNC(=O)CN(C)CC(=O)[C@H](CCCNC(=N)N)NC(=O)[C@@H]1CCCN1C(=O)[C@H](N)Cc1ccccc1)C(=O)N1CCC[C@H]1C(=O)N[C@@H](CCC(=O)O)C(=O)N[C@@H](CCC(=O)O)C(=O)N[C@@H](Cc1ccc(O)cc1)C(=O)N[C@@H](CC(C)C)C(=O)N[C@@H](CCC(N)=O)C(=O)O | 83
CC[C@@H](C)[C@H](NC(=O)[C@H](CCC(=O)O)NC(=O)[C@H](CCC(=O)O)NC(=O)[C@H](Cc1ccccc1)NC(=O)[C@H](CC(=O)O)NC(=O)CNC(=O)CCCCCNC(=O)CNCC(=O)NCC(=O)[C@H](CCCNC(=N)N)NC(=O)[C@@H]1CCCN1C(=O)[C@H](N)Cc1ccccc1)C(=O)N1CCC[C@H]1C(=O)N[C@@H](CCC(=O)O)C(=O)N[C@@H](CCC(=O)O)C(=O)N[C@@H](Cc1ccc(O)cc1)C(=O)N[C@@H](CC(C)C)C(=O)N[C@@H](CCC(N)=O)C(=O)O | 7300
CC[C@@H](C)[C@H](NC(=O)[C@@H]1CCCN1C(=O)[C@H](CCC(=O)O)NC(=O)[C@H](Cc1ccc(O)cc1)NC(=O)[C@H](CC(=O)O)NC(=O)CNC(=O)CNC(=O)CNC(=O)CNC(=O)[C@H](C)NCC(=O)[C@H](CCCN=C(N)N)NC(=O)[C@@H]1CCCN1C(=O)[C@H](N)CC1CCCCC1)C(=O)N1CCC[C@H]1C(=O)N[C@@H](CCC(=O)O)C(=O)N[C@@H](CCC(=O)O)C(=O)N[C@@H](Cc1ccc(O)cc1)C(=O)N[C@@H](CC1CCCCC1)C(=O)N[C@@H](CC(=O)O)C(=O)O | 1.5
CC[C@@H](C)[C@H](NC(=O)[C@@H]1CCCN1C(=O)[C@H](CCC(=O)O)NC(=O)[C@H](Cc1ccc(O)cc1)NC(=O)[C@H](CC(=O)O)NC(=O)CNC(=O)CNC(=O)CNC(=O)CNC(=O)CN(CC(=O)[C@H](CCCN=C(N)N)NC(=O)[C@@H]1CCCN1C(=O)[C@H](N)CC1CCCCC1)C(C)=O)C(=O)N1CCC[C@H]1C(=O)N[C@@H](CCC(=O)O)C(=O)N[C@@H](CCC(=O)O)C(=O)N[C@@H](Cc1ccc(O)cc1)C(=O)N[C@@H](CC1CCCCC1)C(=O)N[C@@H](CC(=O)O)C(=O)O | 1.7
CC[C@@H](C)[C@H](NC(=O)[C@@H]1CCCN1C(=O)[C@H](CCC(=O)O)NC(=O)[C@H](Cc1ccc(O)cc1)NC(=O)[C@H](CC(=O)O)NC(=O)CNC(=O)[C@H](CC(N)=O)NC(=O)CNC(=O)CNC(=O)CNC(=O)CN[C@@H]1CCCN1CC(=O)[C@H](CCCN=C(N)N)NC(=O)[C@@H]1CCCN1C(=O)[C@H](N)CC1CCCCC1)C(=O)N1CCC[C@H]1C(=O)N[C@@H](CCC(=O)O)C(=O)N[C@@H](CCC(=O)O)C(=O)N[C@@H](C)C(=O)N[C@@H](CC1CCCCC1)C(=O)N[C@H](CCC(=O)O)C(=O)O | 5.7
